Measurements from patent US7858738B2, “Synthetic human peptides and pharmaceutical compositions comprising them for the treatment of systemic lupus erythematosus” (Yeda Research and Development Co., Ltd., priority 2001, dated 2010).

Test system: MMP-9
Assay: MMP-9 activity in sera of (NZB×NZW)F1 mice (gel zymography)
Assay type: in vivo
Conditions: 300 μg s.c. once a week from age 7 months; sera after 5 injections; FIG. 23
Description: Induction and treatment of experimental SLE. In order to induce experimental SLE, BALB/c mice were immunized with 1-2 μg of the human mAb 16/6Id and boosted 3 weeks later. For the prevention of experimental SLE, mice were given hCDR1 or hCDR3 (mCDR1 or revmCDR1 as control peptide in Example 12) intravenously (i.v.) or s.c. concomitant with the immunization, and were injected weekly thereafter for 5 weeks. Treatment of an established disease started three and a half months following disease induction with the 16/6Id, when clinical manifestations were already observed. In Example 12, mice received 10 weekly injections (i.v. or s.c.) of mCDR1 or revmCDR1 at a dose of 100 μg/mouse. Prevention and treatment of SLE-like disease in (NZB×NZW)F1 mice with the hCDR1 or mCDR1 peptide. For prevention of SLE, mice at the age of 2 months, before disease manifestations are observed, were injected s.c. with hCDR1 (or mCDR1 in Example 12, 250 μg/mouse) once a week for 10 weeks. To treat an established disease, mice at the age of 5-7 months were injected with hCDR1 (in Example 12, mCDR1 s.c., 250 μg/mouse) once a week for 10 weeks. Proliferative Responses. PBL were isolated from heparinized venous blood by Ficoll-Hypaque (Pharmacia) density-gradient centrifugation. All assays were performed, in triplicate, in flat-bottomed microtiter plates (Falcon, Becton Dickinson, Oxmard, Calif., USA) in which 2×10^5 PBL were cultured in enriched RPMI-1640 as described (Dayan et al., 2000). The PBL were exposed to various concentrations (0.1-40 μg/well) of the human anti-DNA 16/6Id mAb with and without the addition of the various CDR-based peptides at a concentration of at least 10-fold excess over that of the 16/6Id. Phytohemagglutinin (PHA; 2 μg/well) was used as a control for culture conditions at each experiment. The cultures were incubated in 7.5% CO2 at 37° C. for 6 days. Eighteen hours before the cells were harvested, [^3H]-thymidine (0.5μ Ci of 5 Ci/mmol) (Nuclear Research Center, Negev, Israel) was added to all cultures. Results are expressed as the mean thymidine incorporation in counts per minute (CPM) of triplicate culture±SD, or as stimulation index (S.I.; the ratio of mean CPM at the optimal concentration of the human 16/6Id to the mean CPM in the presence of medium alone). […] TGF-β was determined by an ELISA. […] The substrate solution used was TMB color Reagent (Helix Diagnostics, West Sacramento, Calif.), and enzyme activity was evaluated by using 570- and 630-nm filters. […] Proteinuria was measured semiquantitatively by using Combistix kit (Ames Division, Bayer Diagnostics, Newbury, U.K.). White blood cells (WBC, for leukopenia) were counted after a 10-fold dilution of heparinized blood in distilled water containing 1% acetic acid (vol/vol). […]

## GYYWSWIRQPPGKGEEWIG (Human) [hCDR1, 19-mer peptide based on the CDR1 of the heavy chain of the human 16/6Id mAb]
  activity of MMP-9 in pooled sera: down regulated
